Drawing on patent US12582645B2, “Chemokine CXCR4 receptor modulators and uses related thereto” (Emory University, priority 2017, dated 2026), this text covers IC50 for 49 compounds.

T1 sequence (P61073 whole entry): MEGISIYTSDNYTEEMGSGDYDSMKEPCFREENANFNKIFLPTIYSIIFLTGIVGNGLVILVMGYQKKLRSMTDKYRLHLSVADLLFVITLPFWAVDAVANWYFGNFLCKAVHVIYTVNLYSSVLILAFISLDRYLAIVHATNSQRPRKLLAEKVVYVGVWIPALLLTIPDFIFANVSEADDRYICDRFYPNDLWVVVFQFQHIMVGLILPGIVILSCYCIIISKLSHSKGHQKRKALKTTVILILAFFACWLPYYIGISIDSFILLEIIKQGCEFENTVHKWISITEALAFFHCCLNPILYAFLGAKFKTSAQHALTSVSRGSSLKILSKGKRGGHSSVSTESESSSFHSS

This experiment concerns the target T1, CXCR4 (Homo sapiens, UniProt P61073).
T1 construct: Human T lymphoblast cells (CCRF-CEM) expressing endogenous CXCR4 receptors; endogenous in cells; host or cells: CCRF-CEM (human T lymphoblast cells)
Description: CXCR4-CEM calcium flux assay, antagonist mode (inhibition of SDF-1α-induced calcium flux). To be noted: CCRF-CEM cells expressing endogenous CXCR4, stimulated with 4 nM SDF-1α, read-out: CXCR4 Ca^2+ Flux IC50. The experiment is classed as cell-based. As for the experimental part: CXCR4-CEM Calcium Flux Assays
Exemplary compounds of the invention were tested for their ability to induce or inhibit calcium flux in CCRF-CEM cells, a human cell line that endogenously expresses CXCR4. Activation of CXCR4 stimulates G protein signaling which, in CCRF-CEM cells, causes a series of downstream events that leads to the release of intracellular calcium stores, or calcium flux. Calcium ion concentrations can be easily measured using a wide variety of […] calcium indicators and, as a result, calcium flux assays are commonly employed methods for measuring G protein-coupled receptor (GPCR) activity. Because the therapeutic potential of CXCR4 antagonists as anti-cancer agents likely relies on their ability to inhibit CXCR4-mediated G protein signaling, this assay was utilized as a first-pass measure of inhibitor potency.
The cells were then equilibrated to room temperature for 30 minutes before assay. […] For “antagonist mode” assessment, the cells are subsequently incubated for 25 minutes at room temperature. SDF-1α (R&D System Cat #350-NS/CF) was then added at a final concentration of 4 nM to stimulate the cells. Inhibition of SDF-1α-induced calcium flux was monitored by FDSS6000 for 90 seconds.
After correcting for background, EC50 values were determined. […] Inhibition data for the test compound over a range of concentrations was plotted as percentage inhibition of the test compound as compared to an internal control compound.
(In general: Calcium assays in cells follow changes in intracellular calcium, usually with a dye or a luminescent sensor.)
For orientation: IC50 means the concentration that inhibits the measured activity by half. For `CN(CC1CN(Cc2ccccn2)CCN1)[C@H]1CCCc2cccnc21` (single isomer, unassigned) [EMU023 (Stereoisomer 2)], the half-maximal inhibitory concentration (IC50) is 1 µM.

Consider `CN(CC1CN(Cc2ccccn2)CCN1)[C@H]1CCCc2cccnc21` (single isomer, unassigned) [EMU023], for which the IC50 is > 33.3 µM.

For `NCC1CC1CN(C[C@H]1Cc2ccccc2CN1)[C@H]1CCCc2cccnc21` (single isomer, unassigned) [EMU030 (Stereoisomer 1)], the half-inhibitory concentration (IC50) came to 0.00642 µM.

On to `NCC1CC1CN(C[C@H]1Cc2ccccc2CN1)[C@H]1CCCc2cccnc21` (single isomer, unassigned) [EMU030 (Stereoisomer 2)], for which the IC50 worked out at 0.0191 µM.

With `CN(CC1Cc2c(cccc2N2CCNCC2)CN1)[C@H]1CCCc2cccnc21` (single isomer, unassigned) [EMU034 (Stereoisomer 1)], the IC50 worked out at 0.00608 µM.

In the case of `CN(CC1Cc2c(cccc2N2CCNCC2)CN1)[C@H]1CCCc2cccnc21` (single isomer, unassigned) [EMU034 (Stereoisomer 2)], the half-inhibitory concentration (IC50) was found to be 0.314 µM.

For the compound `CN(CC1Cc2c(cccc2NC2CCNCC2)CN1)[C@H]1CCCc2cccnc21` (single isomer, unassigned) [EMU044 (Stereoisomer 1)], the IC50 was found to be 0.0181 µM.

Turning to `CN(CC1Cc2c(cccc2NC2CCNCC2)CN1)[C@H]1CCCc2cccnc21` (single isomer, unassigned) [EMU044 (Stereoisomer 2)], the IC50 is 1.7 µM.

On to `CN(CC1Cc2c(cccc2N2CCC(N)CC2)CN1)[C@H]1CCCc2cccnc21` (single isomer, unassigned) [EMU058], for which the half-maximal inhibitory concentration (IC50) is 0.0334 µM.

Consider `NC1CCC(N(C[C@H]2Cc3ccccc3CN2)[C@H]2CCCc3cccnc32)CC1` (single isomer, unassigned) [EMU073 (Stereoisomer 1)], for which the 50% inhibitory concentration (IC50) is 0.0337 µM.

`C[C@@H]1CN(c2cccc3c2CC(CN(C)[C@H]2CCCc4cccnc42)NC3)C[C@H](C)N1` (single isomer, unassigned) [EMU096 (Stereoisomer 1)]: the half-maximal inhibitory concentration (IC50) stood at 0.061 µM.

`C[C@@H]1CN(c2cccc3c2CC(CN(C)[C@H]2CCCc4cccnc42)NC3)C[C@H](C)N1` (single isomer, unassigned) [EMU096 (Stereoisomer 2)]: the concentration for half-maximal inhibition (IC50) was 3.84 µM.

Consider `c1cnc2c(c1)CCC[C@@H]2N(CC1CCCCC1)CC1Cc2c(cccc2N2CCNCC2)CN1` (single isomer, unassigned) [EMU100 (Stereoisomer 1)], for which the half-inhibitory concentration (IC50) was found to be 0.715 µM.

As for `c1cnc2c(c1)CCC[C@@H]2N(CC1CCCCC1)CC1Cc2c(cccc2N2CCNCC2)CN1` (single isomer, unassigned) [EMU100 (Stereoisomer 2)], the 50% inhibitory concentration (IC50) is 1.29 µM.

Regarding `NC/C=C\CN(CC1Cc2ncccc2CN1)[C@H]1CCCc2cccnc21` (single isomer, unassigned) [EMU142 (Stereoisomer 1)], the IC50 was 0.0256 µM.

In the case of `NC/C=C\CN(CC1Cc2ncccc2CN1)[C@H]1CCCc2cccnc21` (single isomer, unassigned) [EMU142 (Stereoisomer 2)], the IC50 turned out to be 0.503 µM.

Take `CN(CC1Cc2ncccc2CN1)[C@H]1CCCc2cccnc21` (single isomer, unassigned) [EMU174 (Stereoisomer 1)]: the IC50 was > 33.3 µM.

As to `CN(CC1Cc2ncccc2CN1)[C@H]1CCCc2cccnc21` (single isomer, unassigned) [EMU174 (Stereoisomer 2)], the IC50 came out at 0.476 µM.

Turning to `NC/C=C/CN(CC1Cc2ncccc2CN1)[C@H]1CCCc2cccnc21` (single isomer, unassigned) [EMU192 (Stereoisomer 1)], the half-maximal inhibitory concentration (IC50) is 0.146 µM.

`NCc1ccc(CN(CC2Cc3ncccc3CN2)[C@H]2CCCc3cccnc32)cc1` (single isomer, unassigned) [EMU193]: the half-inhibitory concentration (IC50) turned out to be 17 µM.

Consider `NCc1ccc(CN(CC2Cc3ncccc3CN2)[C@H]2CCCc3cccnc32)cc1` (single isomer, unassigned) [EMU194], for which the half-inhibitory concentration (IC50) was found to be 0.111 µM.

On to `NC(=O)NC/C=C\CN(CC1Cc2ncccc2CN1)[C@H]1CCCc2cccnc21` (single isomer, unassigned) [EMU209 (Stereoisomer 1)], for which the IC50 came to 0.463 µM.

As to `NC(=O)NC/C=C/CN(CC1Cc2ncccc2CN1)[C@H]1CCCc2cccnc21` (single isomer, unassigned) [EMU212 (Stereoisomer 1)], the concentration for half-maximal inhibition (IC50) stood at 0.43 µM.

In the case of `CN(C[C@H]1Cc2c(cccc2N2CC3CNCC3C2)CN1)C1CCCc2cccnc21` (stereo partly shown) [EMU062], the IC50 came out at 0.0103 µM.

As for `C[C@@H](c1ccccn1)N(C[C@H]1Cc2ccccc2CN1)C[C@H]1Cc2ccccc2CN1` [EMU065, (S)-1-(pyridin-2-yl)-N,N-bis(((R)-1,2,3,4-tetrahydroisoquinolin-3-yl)methyl)ethanamine], the half-inhibitory concentration (IC50) amounted to 1.1 µM.

With `CN1CCN(c2ccccc2CN2CCNC(CN(C)[C@H]3CCCc4cccnc43)C2)CC1` (stereo partly drawn) [EMU070, (8S)—N-methyl-N-((4-(2 (4-methylpiperazin-1-yl)benzyl)piperazin-2-yl)methyl)-5,6,7,8-tetrahydroquinolin-8-amine], the half-inhibitory concentration (IC50) is 6.27 µM.

In the case of `N[C@H]1CC[C@H](CN(C[C@H]2Cc3ccccc3CN2)[C@H]2CCCc3cccnc32)CC1` [EMU074], the IC50 is 0.284 µM.

`CC(C)(CCN)CN(C[C@H]1Cc2ccccc2CN1)[C@H]1CCCc2cccnc21` [EMU075]: the concentration for half-maximal inhibition (IC50) was > 33.3 µM.

Regarding `CN(C[C@H]1Cc2c(cccc2N[C@H]2CC[C@H](N)CC2)CN1)[C@H]1CCCc2cccnc21` [EMU089], the IC50 was 0.755 µM.

`CN1CCN(c2cccc3c2CC(CN(C)[C@H]2CCCc4cccnc42)N(C)C3)CC1` (stereo partly shown) [EMU090]: the IC50 is 0.171 µM.

On to `NCc1cccc(CN(C[C@H]2Cc3ccccc3CN2)[C@H]2CCCc3cccnc32)c1` [EMU094, (S)—N-(3-(aminomethyl)benzyl)-N—(((R)-1,2,3,4-tetrahydroisoquinolin-3-yl)methyl)-5,6,7,8-tetrahydroquinolin-8-amine], for which the concentration for half-maximal inhibition (IC50) is 0.292 µM.

Consider `NCCCCN(Cc1cscn1)C[C@H]1Cc2ccccc2CN1` [EMU104, (R)—N1-((1,2,3,4-tetrahydroisoquinolin-3-yl)methyl)-N1-(thiazol-4-ylmethyl)butane-1,4-diamine], for which the IC50 was ~16.6 µM.

As for `Cc1cnc(CN(C)C[C@H]2Cc3c(cccc3N3CCNCC3)CN2)c(C)c1` [EMU107, (R)-1-(3,5-dimethylpyridin-2-yl)-N-methyl-N-((5-(piperazin-1-yl)-1,2,3,4-tetrahydroisoquinolin-3-yl)methyl)methanamine], the half-inhibitory concentration (IC50) amounted to 0.0214 µM.

With `Cc1nc(CN(CCCCN)C[C@H]2Cc3ccccc3CN2)cs1` [EMU110, (R)—N1-((2-methylthiazol-4-yl)methyl)-N1-((1,2,3,4-tetrahydroisoquinolin-3-yl)methyl)butane-1,4-diamine], the IC50 was > 33.3 µM.

In the case of `NCCCCN(Cc1nccs1)C[C@H]1Cc2ccccc2CN1` [EMU111, (R)—N1-((1,2,3,4-tetrahydroisoquinolin-3-yl)methyl)-N1-(thiazol-2-ylmethyl)butane-1,4-diamine], the IC50 is > 33.3 µM.

For the compound `CN1CCN(c2cccc3c2C[C@H](CN(C)[C@H]2CCCc4cccnc42)NC3)CC1` [EMU116], the concentration for half-maximal inhibition (IC50) is 0.0296 µM.

Take `c1cnc2c(c1)CCC[C@@H]2N(CC1CC1)C[C@H]1Cc2c(cccc2N2CCNCC2)CN1` [EMU119]: the IC50 stood at 0.0267 µM.

Take `FC1(F)CCC(CN(C[C@H]2Cc3c(cccc3N3CCNCC3)CN2)[C@H]2CCCc3cccnc32)CC1` [EMU120]: the IC50 was found to be 0.498 µM.

As for `NC[C@H]1CC[C@H](CN(C[C@H]2Cc3ccccc3CN2)[C@H]2CCCc3cccnc32)CC1` [EMU121], the half-inhibitory concentration (IC50) was 0.343 µM.

For `NCC1=C(CN(C[C@H]2Cc3ccccc3CN2)[C@H]2CCCc3cccnc32)CCCC1` [EMU124], the half-inhibitory concentration (IC50) turned out to be 0.227 µM.

On to `C/C(CN(C[C@H]1Cc2ccccc2CN1)[C@H]1CCCc2cccnc21)=C(\F)CN` [EMU125], for which the half-inhibitory concentration (IC50) was found to be 0.0799 µM.

With `C/C(CN(C[C@H]1Cc2ccccc2CN1)[C@H]1CCCc2cccnc21)=C(/F)CN` [EMU126], the half-maximal inhibitory concentration (IC50) was 1.88 µM.

Regarding `Cc1cccnc1CN(C)C[C@H]1Cc2c(cccc2N2CCNCC2)CN1` [EMU127, (R)—N-methyl-1-(3-methylpyridin-2-yl)-N-((5-(piperazin-1-yl)-1,2,3,4-tetrahydroisoquinolin-3-yl)methyl)methanamine], the IC50 turned out to be 0.0912 µM.

Regarding `Cc1ccc(CN(C)C[C@H]2Cc3c(cccc3N3CCNCC3)CN2)nc1` [EMU130, (R)—N-methyl-1-(5-methylpyridin-2-yl)-N-((5-(piperazin-1-yl)-1,2,3,4-tetrahydroisoquinolin-3-yl)methyl)methanamine], the half-inhibitory concentration (IC50) was determined as 0.51 µM.

With `CN(C[C@H]1Cc2c(cccc2N2C[C@@H]3C[C@H]2CN3)CN1)C1CCCc2cccnc21` (stereo partly shown) [EMU135], the IC50 amounted to 0.146 µM.

For `CN(C[C@H]1Cc2c(cccc2N2CCNC(C)(C)C2)CN1)[C@H]1CCCc2cccnc21` [EMU136], the IC50 was determined as 0.0339 µM.

For the compound `C/C(CN)=C(\F)CN(CC1Cc2ccccc2CN1)[C@H]1CCCc2cccnc21` (stereo partly shown) [EMU140], the half-inhibitory concentration (IC50) was 0.0283 µM.

Consider `C/C(CN)=C(/F)CN(C[C@H]1Cc2ccccc2CN1)[C@H]1CCCc2cccnc21` [EMU141], for which the half-inhibitory concentration (IC50) stood at 0.0437 µM.

In the case of `FC1(F)CCC(NC/C=C\CN(C[C@H]2Cc3ccccc3CN2)[C@H]2CCCc3cccnc32)CC1` [EMU143], the half-inhibitory concentration (IC50) was found to be 0.098 µM.
